Structure (SMILES)	melting point [°C]
O=C1NC(=O)c2c1c(-c1ccc(CO)cc1)cc1[nH]c3ccc(O)cc3c21	266 to 271
CC=CC(=O)C1C(C)C(=O)CCC1(C)C (stereo unspecified)	76 to 77
Cc1sc(N2CCOCC2)nc1CCl	110 to 111
C[C@H](C(=O)O)n1nc(O)c2[nH]c3cc(Cl)ccc3c(=O)c2c1=O	> 275
O=C(Nc1nc(Cc2ccccc2)c(C(=O)c2sc(NC(=O)Oc3ccccc3)nc2Cc2ccccc2)s1)Oc1ccccc1	> 285
COc1cc(Br)c(Nc2nc(C)nc(-c3ccccc3C(F)(F)F)c2[N+](=O)[O-])c(OC)c1	147 to 148
CNC(=O)Oc1ccc(N=C(C)c2ccccc2O)c(C)c1	133 to 138
CC(C)Cn1c(CN2C(=O)c3ccccc3C2=O)c(-c2ccccc2)c2cc(OCc3ccccc3)ccc2c1=O	113 to 114
NNC(=O)C1(N)CCN(Cc2ccccc2)CC1	231
CC1(C)CC(SCc2c(C(F)(F)F)nn(C(F)F)c2Cl)=NO1	41 to 42
CS(=O)(=O)c1c(C(=O)c2cnoc2C2CC2)ccc2c1OC(F)(F)O2	162 to 163
O=C(NCc1ccccc1)c1ccccc1I	122 to 123
CCOC(=O)CCCCCCn1cnc2ccncc21	64 to 65
COc1cc2c(cc1OC)C1C(Cl)=NC=NC1N2 (stereo unspecified)	148 to 150
CCOC(=O)c1cc([N+](=O)[O-])ccc1F	53 to 54
NCCCCc1ccccc1C1=NNC(=O)CC1	78 to 80
Cc1cc(Oc2ccc(C(F)(F)F)cc2Cl)cc(C)c1N	104 to 105
N#CSc1nc(C(F)(F)F)nc2ccccc12	134 to 136
CC(C)C1(C)C(=O)NC2c3ccccc3C(=O)N21 (stereo unspecified)	178 to 200
COC(=O)c1snc(-c2ccccc2)c1C(=O)OC	70 to 71.5
CCCCCCCCC/C=C/C(=O)N[C@H]1CCCNC(=O)C1	87 to 88
CN(C)C1CC=C(c2c[nH]c3ccc(N)cc23)CC1 (stereo unspecified)	63 to 65
CC12C=CC(=O)C=C1CCC1C3=CC(O)C(O)(C(=O)CO)C3(C)CC(O)C12 (stereo unspecified)	240 to 242
CC(C)(C)OC(=O)NC(Cc1ccccc1)C(=O)NC1N=C(c2ccccc2)c2ccccc2NC1=O (mixture of isomers)	143 to 153

Structure (SMILES)	melting point [°C]
CC1=CCC(O)(C(C)(C)Sc2ccccc2)CC1 (stereo unspecified)	73 to 74
O=C(O)CSCCCCc1cccc2cncn12	124 to 126
CC(C)(C)OC(=O)N1CCc2snc(O)c2C1	174 to 177
COc1ccc(C=O)c(F)c1OC	52 to 54
Oc1nsnc1-c1c(Cl)cccc1Cl	194 to 195
Cc1ccc(C(=O)Nc2ccc(-c3ccccc3)c(C(F)(F)F)c2)cc1Nc1nccc(-c2cccnc2)n1	172 to 174
CCCCCCCCCC(=O)Nc1ccc(S(=O)(=O)Nc2nnc(CC(=O)OCC)s2)cc1	89 to 90
Cn1cc([N+](=O)[O-])c(C(=O)NC2CCCC2)n1	176 to 177
CN1CC(CNN)CC2c3cccc4[nH]cc(c34)CC21 (stereo unspecified)	171 to 172
Cc1nc(N)nc(N)c1-c1cc(Cl)cc(Cl)c1Cl	236 to 238
CC(=O)n1cc(-c2ccccc2)c(O)n1	215
CC1OC(Cn2cncn2)(c2ccc(Cl)cc2Cl)C1(C)C (stereo unspecified)	118 to 125
O=Cc1cc(O)c(O)c(C(F)(F)F)c1	188 to 192
Nc1nc(N)c(Br)c(OCCOCP(=O)(O)O)n1	218
Cc1nnc2n1-c1sc(CCC(=O)O)cc1C(c1ccccc1Cl)=NC2C (stereo unspecified)	202 to 204
CC(c1ccc(F)cc1)n1nc(-c2ccc(F)cc2)c(-c2ccc(S(C)(=O)=O)cc2)cc1=O (stereo unspecified)	185 to 186
COC(=O)COc1c(Cl)cc(C(=O)CBr)cc1Cl	89 to 90
Cc1cc(-c2cccc(C3=Nc4ccc(-c5ccccc5F)cc4NC(=O)C3)c2)on1	222 to 224
CC(Nc1ccc(Cl)c(Cl)c1)C(=O)O (stereo unspecified)	148 to 149
Cc1ccc(CC(O)(P(=O)(O)O)P(=O)(O)O)cc1	211 to 213
CC(=O)OC1CCC2(C)C(CCC3=C4C(=O)CC(C(C)CCCC(F)(C(F)(F)F)C(F)(F)F)C4(C)CCC32)C1 (stereo unspecified)	187 to 188
CN1C(=O)C2C3CCC(C3)C2(c2ccc3c(c2)CCCC3)C1=O (stereo unspecified)	108 to 114
CN(C)c1cccc(C(=O)Nc2ccc3ccc(Oc4ccccc4)nc3n2)c1	120
O=CNc1ccc(Cl)cc1C(=O)c1ccccc1Cl	106 to 107

Next, values leading:

melting point [°C]	Structure (SMILES)
192	CCOC(=O)N1CCC(=C2c3ccccc3CCn3c(CO)cnc32)CC1
124 to 126	CCCCS(=O)(=O)NC(Cc1ccc(N2CCN(CCC3CCN(C(=O)OC(C)(C)C)CC3)C2=O)cc1)C(=O)OC (stereo unspecified)
162 to 163	COc1ccc(C#N)cc1/C=C/C(=O)N[C@H](CO)CN1CCC(C(=O)c2ccc(Cl)cc2)CC1
186	CN(C)c1ccc(C(=O)c2ccccc2)cc1NC(=O)c1ccn2c1CSC2c1cccnc1 (stereo unspecified)
154	O=C1C(=O)N(c2ccc(Cl)cc2)C(=O)N1c1ccccc1
163 to 165	Cc1ccccc1-c1c(NC(=O)Nc2ccc(F)cc2F)c(=O)n(C)c2ccc(Cl)cc12
149 to 151	Cc1c(CC(=O)OCCCCO)cc(-c2ccc(S(C)(=O)=O)cc2)n1-c1ccc(F)cc1
274 to 276	CN1CCN(c2ccc(Nc3ncc4c(n3)S/C(=C/c3ccc(C#N)cc3)C(=O)N4)cc2)CC1
117 to 119	CCCCCC(=O)NS(=O)(=O)/C=C/c1cc(OCCCC)nn1Cc1ccc(Cl)cc1Cl
86 to 93	Cn1ncc(C(=O)c2ccc(S(C)(=O)=O)c3c2CC2CON=C32)c1OC(=O)c1ccccc1 (stereo unspecified)
186 to 187	O=[N+]([O-])c1ccccc1N1CCN(CC(O)COc2cccc3c2CCCC3)CC1 (stereo unspecified)
129 to 130	CC(C)c1cc(Oc2ccc(Cl)cc2C(=O)O)cc(C(C)C)c1
112 to 114	CC(C)(O)c1ccc(-c2ccc(C(CC3CCOCC3)c3ccc(S(=O)(=O)C4CC4)cc3)[nH]2)nc1 (stereo unspecified)
109 to 112	O=C(O)CCC(NC(=O)c1cccc(-c2ccccc2OC2OC(CO)C(O)C(O)C2O)c1)C(=O)O (stereo unspecified)
172 to 178	O=C(CCc1ccccc1)N1CCN(C(=O)C(Cc2ccc(O)cc2)NS(=O)(=O)c2cccc3cnccc23)CC1 (stereo unspecified)
109	Cc1nc2ccccn2c(=O)c1CCN1CCC(=C(c2ccc(F)cc2)c2ccc(F)cc2)CC1
127 to 129	CN(C)C(=O)c1ccccc1OCC(=O)NC(C)(C)c1ccc(Cl)cc1
212 to 215	Cc1ccc(CC2CCN(C(=O)CNc3ccc4[nH]c(=O)oc4c3)CC2)cc1
167 to 168	CC1OCCn2c1nc(C(=O)O)c(OCc1ccccc1)c2=O (stereo unspecified)
124 to 126	CC(=O)Oc1ccccc1C(=O)NC(O)C(Cl)(Cl)Cl (stereo unspecified)
172 to 174	CCCCCCOCC1CN(c2cc3c(cc2F)c(=O)c(C(=O)O)cn3CC)CCN1C (stereo unspecified)
118 to 120	O=C(O)c1ccc2c(c1)CCC(CCN1CCC(c3ccccc3)CC1)C2=O (stereo unspecified)
61 to 62	CCc1cc2c(cc1OCc1ccccc1)CCC1C2CCC2(C)C(=CCO)CCC12 (stereo unspecified)

Source: a melting point compilation (Tetko et al.; mined from patent text by program, amines drawn as free bases though some values may be those of a salt)
